Values after ≈ are worked out from the molar mass of the structure shown. “Also recorded” adds a separate entry of the source. Like-named read-outs stand apart in the source and are kept apart here.

Here are results for 23 compounds from paper PMC10057394, “Exploring the Antitubercular Activity of Anthranilic Acid Derivatives: From MabA (FabG1) Inhibition to Intrabacterial Acidification” (Pharmaceuticals, 2023).

One data set is described as follows: Solubility in PBS pH 7.4. To be noted: PBS pH 7.4, pH 7.4, aqueous buffer, kinetic from dmso stock.
The next data set can be described thus: LogD octanol/PBS pH 7.4. To be noted: octanol/PBS 1/1, pH 7.4.
In data set [1] the test system is GFP-expressing M. tuberculosis H37Rv. Set-up: method as in PMID 32505086. To be noted: Middlebrook 7H9 liquid medium with OADC (contains albumin); 5 days; GFP signal; reported previously; cited from earlier work.
For data set [2] the test system is unchanged. Put plainly: microbe, parasite or virus in culture. The class given is cell-based. To be noted: Mycobacterium tuberculosis.
For data set [3], the target named is T1, MabA (Mycobacterium tuberculosis, UniProt P9WGT3). The data set can be described thus: MabA LC-MS/MS-based enzymatic assay (reduction of acetoacetyl-CoA into HBCoA). In kind it is biochemical. To be noted: for IC50: concentration inhibiting 50% of the transformation of acetoacetyl-CoA in HBCoA in the presence of NADPH, LC-MS/MS.
T1 sequence (P9WGT3 whole entry, looked up): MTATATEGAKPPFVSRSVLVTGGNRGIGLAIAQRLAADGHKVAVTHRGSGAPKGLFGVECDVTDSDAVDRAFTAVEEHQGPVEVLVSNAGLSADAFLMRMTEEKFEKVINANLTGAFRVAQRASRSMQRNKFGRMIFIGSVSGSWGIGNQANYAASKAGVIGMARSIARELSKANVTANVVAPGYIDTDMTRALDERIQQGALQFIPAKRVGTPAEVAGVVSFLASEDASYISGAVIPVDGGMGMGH
A further data set relates to plasma proteins. The data set can be described thus: Plasma protein binding by rapid equilibrium dialysis. To be noted: 10% plasma (diluted 1 to 10 in phosphate buffer), pH 7.2.
Data set [4] concerns the target T1, MabA. The class given is binding.
The subject of data set [5] is H37Rv carrying pUV15-pHGFP. The class given is cell-based, M. tuberculosis. To be noted: pH 4.5.
Data set [6] relates to H37Rv. The class given is cell-based, M. tuberculosis.
The subject of data set [7] is H37Rv. In kind it is cell-based, M. tuberculosis. This is another data set of the same source.
The test system of a further data set is M. tuberculosis H37Rv. The class given is cell-based.
Data set [8] can be described thus: Solubility in Sauton medium. In kind it is physicochemical. To be noted: aqueous buffer.

Usually solubility stands for how much of the substance goes into solution per volume. In general, logD refers to lipophilicity at a set pH, counting ionised and neutral species. A higher logD goes with a more lipophilic compound. By IC50 is commonly meant the point on the concentration scale where inhibition reaches its midpoint. Usually fraction unbound stands for the share of the substance not bound to proteins or other matrix. On to `O=C(Nc1ccc(I)cc1C(=O)O)c1ccc(Cl)c(Cl)c1` [Compound 1, 2-[(3,4-dichlorobenzoyl)amino]-5-iodo-benzoic acid], for which, in the data set “Solubility in PBS pH 7.4”, the solubility at 24 h was greater than 200 µM. The logD at 2 h in the data set “LogD octanol/PBS pH 7.4” worked out at 3.4. Further, the MIC90 in [1] is 300 µM (≈ 131 µg/mL); in [2], 300 µM (≈ 131 µg/mL); in data set [2] (168 h), 100 µM (≈ 43.6 µg/mL). In addition, the IC50 on MabA [3] was found to be 38 ± 6 µM. In the data set with plasma proteins, this compound had a fraction unbound at 4 h, 10 µM of 0.0014.

As for `O=C(Nc1ccc(Br)cc1C(=O)O)c1ccc(Cl)c(Cl)c1` [Compound 2, 5-bromo-2-[(3,4-dichlorobenzoyl)amino]benzoic Acid], in the data set “Solubility in PBS pH 7.4”, the concentration in solution (solubility at 24 h) was 181 µM (≈ 70.4 µg/mL). In the data set “LogD octanol/PBS pH 7.4”, this compound returned a logD at 2 h of 3. Further, the MIC90 is 300 µM (≈ 117 µg/mL) in [1] and 100 µM (≈ 38.9 µg/mL) in data set [2] (168 h). Besides, on MabA [3], the IC50 is 45 µM.

Turning to `CN(C(=O)c1ccc(Cl)c(Cl)c1)c1ccc(I)cc1C(=O)O` [Compound 3, 2-[(3,4-dichlorobenzoyl)-methyl-amino]-5-iodo-benzoic Acid], at MabA [3], the IC50 is greater than 200 µM.

As for `O=C(O)c1cc(I)ccc1NS(=O)(=O)c1ccc(Cl)c(Cl)c1` [Compound 4, 2-[(3,4-dichlorophenyl)sulfonylamino]-5-iodo-benzoic Acid], the IC50 on MabA [3] was 40 µM.

`O=C(O)c1cc(Br)ccc1C(=O)Nc1ccc(Cl)c(Cl)c1` [Compound 5, 5-bromo-2-[(3,4-dichlorophenyl)carbamoyl]benzoic Acid]: the IC50 at MabA [3] amounted to 268 µM.

`O=C(O)c1cc(Br)ccc1NC(=S)c1ccc(Cl)c(Cl)c1` [Compound 6, 5-bromo-2-[(3,4-dichlorobenzenecarbothioyl)amino]benzoic Acid]: the IC50 at MabA [3] was 39 µM.

For `O=C(O)c1cc(Br)ccc1-c1nc(-c2ccc(Cl)c(Cl)c2)no1` [Compound 7, 5-bromo-2-[3-(3,4-dichlorophenyl)-1,2,4-oxadiazol-5-yl]benzoic Acid], the IC50 at MabA [3] amounted to 102 µM.

As for `O=C(Nc1ccc(I)cc1CO)c1ccc(Cl)c(Cl)c1` [Compound 8, 3,4-dichloro-N-[2-(hydroxymethyl)-4-iodo-phenyl]benzamide], the IC50 on MabA [3] was greater than 333 µM.

For `NC(=O)c1cc(I)ccc1NC(=O)c1ccc(Cl)c(Cl)c1` [Compound 9, N-(2-carbamoyl-4-iodo-phenyl)-3,4-dichloro-benzamide], on MabA [3], the IC50 is greater than 500 µM.

For `N#Cc1cc(I)ccc1NC(=O)c1ccc(Cl)c(Cl)c1` [Compound 10, 3,4-dichloro-N-(2-cyano-4-iodo-phenyl)benzamide], the IC50 at MabA [3] is greater than 1000 µM.

With `O=C(Nc1ccc(I)cc1-c1nnn[nH]1)c1ccc(Cl)c(Cl)c1` [Compound 11, 3,4-dichloro-N-[4-iodo-2-(1H-tetrazol-5-yl)phenyl]benzamide], on MabA [3], the IC50 stood at 24 µM.

For the compound `O=C(Nc1ccc(I)cc1C(=O)NS(=O)(=O)C(F)(F)F)c1ccc(Cl)c(Cl)c1` [Compound 12, 3,4-dichloro-N-[4-iodo-2-(trifluoromethylsulfonylcarbamoyl)phenyl]benzamide], the concentration in solution in “Solubility in PBS pH 7.4” (solubility at 24 h) came to 180 µM (≈ 102 µg/mL). On MabA [4], the “19F- and 1H-NMR signal in the presence of MabA” value was “confirmed the direct binding; also recorded: total disappearance of the signal”. In the data set “LogD octanol/PBS pH 7.4”, this compound came in with a logD at 2 h of 4.1. The same compound showed an MIC90 in data set [2] (168 h) of 300 µM (≈ 170 µg/mL). The IC50 at MabA [3] came out at 35 µM. Moreover, the fraction unbound at 4 h, 10 µM with plasma proteins is 0.0002.

For `CS(=O)(=O)NC(=O)c1cc(I)ccc1NC(=O)c1ccc(Cl)c(Cl)c1` [Compound 13, 3,4-dichloro-N-[4-iodo-2-(methylsulfonylcarbamoyl)phenyl]benzamide], the IC50 on MabA [3] worked out at 28 µM.

Regarding `O=C(Nc1cc(Br)ccc1C(=O)O)c1ccc(Cl)c(Cl)c1` [Compound 14, 4-bromo-2-[(3,4-dichlorobenzoyl)amino]benzoic Acid], the IC50 at MabA [3] amounted to 34 µM.

For `O=C(Nc1ccccc1C(=O)O)c1ccc(Cl)c(Cl)c1` [Compound 15, 2-[(3,4-dichlorobenzoyl)amino]benzoic Acid], the IC50 at MabA [3] is greater than 1000 µM.

In the case of `O=C(Nc1ccc(C#CC2CC2)cc1C(=O)O)c1ccc(Cl)c(Cl)c1` [Compound 16, 5-(2-cyclopropylethynyl)-2-[(3,4-dichlorobenzoyl)amino]benzoic Acid], the “effect on intrabacterial pH” value in data set [5] is on record as “dose-dependent decrease in the intrabacterial pH”. Moreover, the solubility at 24 h in “Solubility in PBS pH 7.4” was greater than 200 µM. In addition, in the data set on H37Rv [6], the transcriptional response entry is “downregulation of genes implicated in DNA replication, transcription, translation and growth”. For the same compound, the “effect of pH on potency” value in the data set with H37Rv [7] was “decreasing pH improved the potency”. For the same compound, the “effect on mycolic acids synthesis (TLC)” value in the data set with M. tuberculosis H37Rv is on record as “no specific inhibition of mycolic acids”. In [2] (168 h), this compound showed an MIC90 of 100 µM (≈ 37.4 µg/mL). For the same compound, the IC50 on MabA [3] was 60 µM. For the same compound, the fraction unbound at 4 h, 10 µM in the data set on plasma proteins was 0.0006. In addition, the solubility in data set [8] is greater than 300 µM.

`C#Cc1ccc(C(=O)O)c(NC(=O)c2ccc(Cl)c(Cl)c2)c1` [Compound 17, 2-[(3,4-dichlorobenzoyl)amino]-4-ethynyl-benzoic Acid]: on MabA [3], the “fold reduction in potency” value is recorded as 2 fold and the IC50 is 77 µM.

As for `O=C(Nc1cc(-n2cccn2)ccc1C(=O)O)c1ccc(Cl)c(Cl)c1` [Compound 18, 2-[(3,4-dichlorobenzoyl)amino]-4-pyrazol-1-yl-benzoic Acid], the solubility at 24 h in “Solubility in PBS pH 7.4” came to 149 µM (≈ 56.1 µg/mL). Also, in “LogD octanol/PBS pH 7.4”, the pH-dependent lipophilicity (logD) at 2 h stood at 2.54. The “effect on mycolic acids synthesis (TLC)” value in the data set on M. tuberculosis H37Rv was “no specific inhibition of mycolic acids”. Moreover, in data set [2] (168 h), the MIC90 was 300 µM (≈ 113 µg/mL). At MabA [3], the “improvement of the activity by a factor” value is recorded as 1.6 and the IC50 is 23 µM. The compound further returned a fraction unbound at 4 h, 10 µM in the data set with plasma proteins of less than 0.0001. Moreover, in data set [8], the solubility was greater than 300 µM.

As for `O=C(Nc1cc2ccccc2cc1C(=O)O)c1ccc(Cl)c(Cl)c1` [Compound 19, 3-[(3,4-dichlorobenzoyl)amino]naphthalene-2-carboxylic Acid], the IC50 on MabA [3] worked out at 33 µM.

As for `O=C(Nc1nc2ccccc2cc1C(=O)O)c1ccc(Cl)c(Cl)c1` [Compound 20, 2-[(3,4-dichlorobenzoyl)amino]quinoline-3-carboxylic Acid], at MabA [3], the “fold reduction in potency” value is 2 fold and the IC50 stood at 76 µM.

For `CCc1cc(C(N)=S)ccn1` [ethionamide, reference compound], the MIC in [2] (168 h) came out at 2 µg/mL (≈ 12 µM).

With `NNC(=O)c1ccncc1` [isoniazid, reference compound], the “effect on mycolic acids synthesis (TLC)” value with M. tuberculosis H37Rv is reported as “decrease in mycolic acids synthesis”. In data set [2] (168 h), the MIC came out at 0.125 µg/mL (≈ 0.911 µM).

The compound `CO[C@H]1/C=C/O[C@@]2(C)Oc3c(C)c(O)c4c(O)c(c(/C=N/N5CCN(C)CC5)c(O)c4c3C2=O)NC(=O)/C(C)=C\C=C\[C@H](C)[C@H](O)[C@@H](C)[C@@H](O)[C@@H](C)[C@H](OC(C)=O)[C@@H]1C` [rifampicine, reference compound] displayed an MIC in data set [2] (168 h) of 0.004 µg/mL (≈ 0.00486 µM).
